Target: USP1 (construct USP1 (I-785, GG670, 671AA)/UAF1 (I-677)-Flag) (Homo sapiens (Human), UniProt O94782, G670A/G671A)
Experiment: Ubiquitin-Rhodamine 110 assay for USP1 activity
Type: biochemical
Conditions: USP1/UAF1 25 pM, Ub-Rh110 25 nM, 30 min preincubation
Outline: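 Ub-Rh110 (25 nM, ≪Km) cleavage read at ex 485/em 535 in Tris pH 8.0, CaCl2, GSH, Prionex, Triton X-100. The screen used 10 µM compound, 100 pM USP1/UAF1 and 45 min at RT.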

USP1 (construct USP1 (I-785, GG670, 671AA)/UAF1 (I-677)-Flag), sequence (O94782 whole entry G670A/G671A): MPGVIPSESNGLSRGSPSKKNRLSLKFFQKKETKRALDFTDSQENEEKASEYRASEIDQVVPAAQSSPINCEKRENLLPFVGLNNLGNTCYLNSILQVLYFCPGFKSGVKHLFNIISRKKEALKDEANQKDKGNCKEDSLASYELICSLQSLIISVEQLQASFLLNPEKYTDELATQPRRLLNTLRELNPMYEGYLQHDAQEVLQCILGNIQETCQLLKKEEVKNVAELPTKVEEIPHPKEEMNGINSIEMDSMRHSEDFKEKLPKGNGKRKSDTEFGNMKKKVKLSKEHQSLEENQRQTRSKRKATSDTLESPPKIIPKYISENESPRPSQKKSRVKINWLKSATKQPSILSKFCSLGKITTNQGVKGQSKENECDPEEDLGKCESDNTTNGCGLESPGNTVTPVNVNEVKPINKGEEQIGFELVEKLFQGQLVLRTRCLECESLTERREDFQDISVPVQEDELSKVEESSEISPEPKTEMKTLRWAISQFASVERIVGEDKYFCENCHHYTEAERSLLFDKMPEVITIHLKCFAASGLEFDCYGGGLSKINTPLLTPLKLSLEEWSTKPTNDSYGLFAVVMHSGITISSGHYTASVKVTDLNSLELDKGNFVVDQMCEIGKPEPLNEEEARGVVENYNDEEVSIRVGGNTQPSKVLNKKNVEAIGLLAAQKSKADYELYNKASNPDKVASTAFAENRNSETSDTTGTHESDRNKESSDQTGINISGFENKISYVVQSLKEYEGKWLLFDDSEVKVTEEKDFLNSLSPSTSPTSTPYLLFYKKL
USP1 (construct USP1 (I-785, GG670, 671AA)/UAF1 (I-677)-Flag), sequence (Q8TAF3 whole entry partner): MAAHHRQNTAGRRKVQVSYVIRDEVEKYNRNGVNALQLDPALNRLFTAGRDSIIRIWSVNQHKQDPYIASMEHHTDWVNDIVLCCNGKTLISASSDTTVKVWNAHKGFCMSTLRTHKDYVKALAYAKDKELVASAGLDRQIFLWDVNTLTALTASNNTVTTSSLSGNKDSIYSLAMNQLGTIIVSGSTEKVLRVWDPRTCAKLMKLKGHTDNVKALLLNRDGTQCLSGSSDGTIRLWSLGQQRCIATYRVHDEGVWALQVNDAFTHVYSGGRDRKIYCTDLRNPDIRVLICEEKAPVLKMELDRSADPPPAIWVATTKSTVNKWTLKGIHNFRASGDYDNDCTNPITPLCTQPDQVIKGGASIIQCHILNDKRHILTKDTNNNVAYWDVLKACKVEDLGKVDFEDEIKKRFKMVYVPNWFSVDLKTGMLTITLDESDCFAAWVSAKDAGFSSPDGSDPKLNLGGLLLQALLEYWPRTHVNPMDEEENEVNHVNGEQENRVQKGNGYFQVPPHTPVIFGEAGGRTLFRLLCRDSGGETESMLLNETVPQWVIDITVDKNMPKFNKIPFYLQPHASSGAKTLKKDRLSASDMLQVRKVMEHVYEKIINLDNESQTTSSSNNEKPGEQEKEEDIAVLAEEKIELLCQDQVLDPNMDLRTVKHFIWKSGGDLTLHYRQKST

| Structure (SMILES) | IC50 [µM] |
| --- | --- |
| CC(C)c1c(F)cccc1-c1ncc2[nH]c(=O)n(Cc3ccc(-n4nccn4)cc3)c2n1 [Compound I-166, 9-(4-(2H-1,2,3-triazol-2-yl)benzyl)-2-(3-fluoro-2-isopropylphenyl)-7,9-dihydro-8H-purin-8-one] | 0.05 to 0.2 |
| CC(C)c1ccccc1-c1ncc2[nH]c(=O)n(Cc3ccc(-n4cccn4)cc3F)c2n1 [Compound I-167, 9-(2-fluoro-4-(1H-pyrazol-1-yl)benzyl)-2-(2-isopropylphenyl)-7,9-dihydro-8H-purin-8-one] | 0.2 to 2 |
| Cc1nnn(-c2ccc(Cn3c(=O)[nH]c4cnc(-c5ccccc5C(C)C)nc43)cc2)n1 [Compound I-168, 2-(2-isopropylphenyl)-9-(4-(5-methyl-2H-tetrazol-2-yl)benzyl)-7,9-dihydro-8H-purin-8-one] | 0.05 to 0.2 |
| CC(C)c1ccccc1-c1ncc2[nH]c(=O)n(Cc3ccc(-c4ncco4)cc3)c2n1 [Compound I-169, 2-(2-isopropylphenyl)-9-(4-(oxazol-2-yl)benzyl)-7,9-dihydro-8H-purin-8-one] | < 0.05 |
| CC(C)c1c(F)cccc1-c1ncc2[nH]c(=O)n(Cc3ccc(-n4cccn4)cc3)c2n1 [Compound I-170, 9-(4-(1H-pyrazol-1-yl)benzyl)-2-(3-fluoro-2-isopropylphenyl)-7,9-dihydro-8H-purin-8-one] | < 0.05 |
| CC(C)c1ccccc1-c1ncc2[nH]c(=O)n(Cc3ccccc3)c2n1 [Compound I-171, 9-benzyl-2-(2-isopropylphenyl)-7,9-dihydro-8H-purin-8-one] | 0.05 to 0.2 |
| CC(C)c1c(F)cccc1-c1ncc2[nH]c(=O)n(Cc3ccc(-c4nccn4C)cc3)c2n1 [Compound I-172, 2-(3-fluoro-2-isopropylphenyl)-9-(4-(1-methyl-1H-imidazol-2-yl)benzyl)-7,9-dihydro-8H-purin-8-one] | < 0.05 |
| CC(C)c1ccccc1-c1ncc2[nH]c(=O)n(Cc3ccc(-n4ccc(N5CCN(C)CC5)n4)cc3)c2n1 [Compound I-173, 2-(2-isopropylphenyl)-9-(4-(3-(4-methylpiperazin-1-yl)-1H-pyrazol-1-yl)benzyl)-7,9-dihydro-8H-purin-8-one] | < 0.05 |
| CC(C)c1ccccc1-c1ncc2[nH]c(=O)n(Cc3ccc(-n4ccc(N5CCOCC5)n4)cc3)c2n1 [Compound I-174, 2-(2-isopropylphenyl)-9-(4-(3-morpholino-1H-pyrazol-1-yl)benzyl)-7,9-dihydro-8H-purin-8-one] | < 0.05 |
| Cc1cn(-c2ccc(Cn3c(=O)[nH]c4cnc(-c5ccccc5C(C)C)nc43)cc2)nn1 [Compound I-175, 2-(2-isopropylphenyl)-9-(4-(4-methyl-1H-1,2,3-triazol-1-yl)benzyl)-7,9-dihydro-8H-purin-8-one] | < 0.05 |
| CC(C)c1ccccc1-c1ncc2[nH]c(=O)n(Cc3ccc(-c4ncc(F)n4C)cc3)c2n1 [Compound I-176, 9-(4-(5-fluoro-1-methyl-1H-imidazol-2-yl)benzyl)-2-(2-isopropylphenyl)-7,9-dihydro-8H-purin-8-one] | < 0.05 |
| CC(C)c1ccccc1-c1ncc2[nH]c(=O)n(Cc3ccc(-n4cccn4)c(F)c3)c2n1 [Compound I-177, 9-(3-fluoro-4-(1H-pyrazol-1-yl)benzyl)-2-(2-isopropylphenyl)-7,9-dihydro-8H-purin-8-one] | < 0.05 |
| CC(C)c1ccccc1-c1ncc2[nH]c(=O)n([C@H](C)c3ccc(F)cc3)c2n1 [Compound I-178, (R)-9-(1-(4-fluorophenyl)ethyl)-2-(2-isopropylphenyl)-7,9-dihydro-8H-purin-8-one] | < 0.05 |
| CC(C)c1ccccc1-c1ncc2[nH]c(=O)n([C@@H](C)c3ccc(F)cc3)c2n1 [Compound I-179, (S)-9-(1-(4-fluorophenyl)ethyl)-2-(2-isopropylphenyl)-7,9-dihydro-8H-purin-8-one] | 0.05 to 0.2 |
| CC(C)c1ccccc1-c1ncc2[nH]c(=O)n([C@H](CO)c3ccc(F)cc3)c2n1 [Compound I-180, (S)-9-(1-(4-fluorophenyl)-2-hydroxyethyl)-2-(2-isopropylphenyl)-7,9-dihydro-8H-purin-8-one] | 0.05 to 0.2 |
| CC(C)c1ccccc1-c1ncc2[nH]c(=O)n([C@H](CO)c3ccccc3)c2n1 [Compound I-181, (S)-9-(2-hydroxy-1-phenylethyl)-2-(2-isopropylphenyl)-7,9-dihydro-8H-purin-8-one] | 0.2 to 2 |
| CC(C)c1ccccc1-c1ncc2[nH]c(=O)n(Cc3ccc4c(c3)ncn4C)c2n1 [Compound I-182, 2-(2-isopropylphenyl)-9-((1-methyl-1H-benzo[d]imidazol-5-yl)methyl)-7,9-dihydro-8H-purin-8-one] | > 2 |
| CC(C)c1ccccc1-c1ncc2[nH]c(=O)n(Cc3ccc(S(C)(=O)=O)cc3)c2n1 [Compound I-183, 2-(2-isopropylphenyl)-9-(4-(methylsulfonyl)benzyl)-7,9-dihydro-8H-purin-8-one] | > 2 |
| Cc1ccnn1-c1ccc(Cn2c(=O)[nH]c3cnc(-c4ccccc4C(C)C)nc32)cc1 [Compound I-184, 2-(2-isopropylphenyl)-9-(4-(5-methyl-1H-pyrazol-1-yl)benzyl)-7,9-dihydro-8H-purin-8-one] | < 0.05 |
| Cc1cnnn1-c1ccc(Cn2c(=O)[nH]c3cnc(-c4ccccc4C(C)C)nc32)cc1 [Compound I-185, 2-(2-isopropylphenyl)-9-(4-(5-methyl-1H-1,2,3-triazol-1-yl)benzyl)-7,9-dihydro-8H-purin-8-one] | < 0.05 |
| CC(C)c1ccccc1-c1ncc2[nH]c(=O)n(Cc3ccc4c(c3)CN(C)C4=O)c2n1 [Compound I-186, 2-(2-isopropylphenyl)-9-((2-methyl-1-oxoisoindolin-5-yl)methyl)-7,9-dihydro-8H-purin-8-one] | 0.05 to 0.2 |
| CC(C)c1ccccc1-c1ncc2[nH]c(=O)n(Cc3ccc4c(c3)CCN(C)C4=O)c2n1 [Compound I-187, 6-((2-(2-isopropylphenyl)-8-oxo-7,8-dihydro-9H-purin-9-yl)methyl)-2-methyl-3,4-dihydroisoquinolin-1(2H)-one] | < 0.05 |
| Cc1nc(-c2ccc(Cn3c(=O)[nH]c4cnc(-c5cccc(F)c5C(C)C)nc43)cc2)no1 [Compound I-188, 2-(3-fluoro-2-isopropylphenyl)-9-(4-(5-methyl-1,2,4-oxadiazol-3-yl)benzyl)-7,9-dihydro-8H-purin-8-one] | < 0.05 |
| Cc1nnc(-c2ccc(Cn3c(=O)[nH]c4cnc(-c5cccc(F)c5C(C)C)nc43)cc2)o1 [Compound I-189, 2-(3-fluoro-2-isopropylphenyl)-9-(4-(5-methyl-1,3,4-oxadiazol-2-yl)benzyl)-7,9-dihydro-8H-purin-8-one] | < 0.05 |
| Cc1cc(C)n(-c2ccc([C@@H](C)n3c(=O)[nH]c4cnc(-c5ccccc5C(C)C)nc43)cc2)n1 [Compound I-190, (R)-9-(1-(4-(3,5-dimethyl-1H-pyrazol-1-yl)phenyl)ethyl)-2-(2-isopropylphenyl)-7,9-dihydro-8H-purin-8-one] | < 0.05 |
| Cc1cc(C)n(-c2ccc([C@H](C)n3c(=O)[nH]c4cnc(-c5ccccc5C(C)C)nc43)cc2)n1 [Compound I-191, (S)-9-(1-(4-(3,5-dimethyl-1H-pyrazol-1-yl)phenyl)ethyl)-2-(2-isopropylphenyl)-7,9-dihydro-8H-purin-8-one] | < 0.05 |

Source: US10189841B2, “Purinones as ubiquitin-specific protease 1 inhibitors” (Forma Therapeutics, Inc., priority 2015, dated 2019)
